Structures are written as SMILES. pIC50: −log10 of the molar value.

For test [1], the system named is Ceritinib resistant MGH049 cells. Nature of the test: Cell colony formation assay with ceritinib resistant MGH049 cells.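 As to all read-outs here: tested compounds are SHP2 inhibitors given alone, colonies fixed and crystal violet stained, DMSO reference taken as the mean of six readings.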 The following applies: 7 days; for activity at 3 µM: Homo sapiens, 168 h, compound of Table 1 (3 μM) alone, normalized to DMSO without compound = 100, read-out: Normalized Crystal Violet abs. (590 nm) DMSO. In kind it is cell-based, human.
In a further test the target is SHP2 (Homo sapiens (Human), UniProt Q06124). Description: SHP2 allosteric inhibition assay (DiFMUP prompt fluorescence). In kind it is biochemical.
Chain of SHP2 (Q06124 whole entry): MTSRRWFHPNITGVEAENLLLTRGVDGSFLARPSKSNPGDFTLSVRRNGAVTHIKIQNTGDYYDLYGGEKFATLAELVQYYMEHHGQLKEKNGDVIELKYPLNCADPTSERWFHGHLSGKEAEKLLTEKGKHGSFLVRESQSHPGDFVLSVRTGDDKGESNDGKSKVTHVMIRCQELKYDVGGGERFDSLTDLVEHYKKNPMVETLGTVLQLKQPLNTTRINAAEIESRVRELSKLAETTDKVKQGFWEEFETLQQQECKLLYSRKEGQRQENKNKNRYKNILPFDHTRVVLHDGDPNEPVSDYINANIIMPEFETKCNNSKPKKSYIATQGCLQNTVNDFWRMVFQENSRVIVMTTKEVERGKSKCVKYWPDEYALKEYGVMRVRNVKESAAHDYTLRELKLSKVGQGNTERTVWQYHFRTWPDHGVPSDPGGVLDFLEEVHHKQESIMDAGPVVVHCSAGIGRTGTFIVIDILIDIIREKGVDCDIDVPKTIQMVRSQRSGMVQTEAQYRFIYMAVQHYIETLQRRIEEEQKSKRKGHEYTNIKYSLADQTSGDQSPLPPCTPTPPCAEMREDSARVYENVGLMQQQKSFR
Test [2] deals with MGH049, MGH045-2A and MGH073-2B cells. Description: Cell colony formation assay (crystal violet, FIG. 1). In kind it is cell-based, human. The following applies: Compound No. 1 5 μM, 14 days. The source says:
FIG. 1. […]. For each cell line, all dishes were fixed, stained and photographed at the same time.
The MGH049, MGH045-2A and MGH073-2B cell lines were established at Massachusetts General Hospital. MGH049 is described in Friboulet L, et al. Cancer Discov. 2014 June; 4(6):662-73. MGH045 is described in Friboulet L, et al. Cancer Discov. 2014 June; 4(6):662-73). MGH045-1A, is described in Science, 2014, December 19; 346(6216):1480-1).
All human lung cancer samples were obtained from patients with informed consent, and all procedures were carried out under an Institutional Review Board (IRB)-approved protocol. The cell lines were cultured in DMEM (ATCC) supplemented with 10% FBS, or in RPMI (ATCC) supplemented with 15% FBS.
Cell colony formation assays were used to assess cell viability and proliferation after compound treatments. Cells were plated into 6-well tissue culture plates (6×10^5 cells/well) in a total volume of 2 mL. After 24 hours, compounds were added to the plates. At the end points of the assays, cells were fixed, stained with crystal violet and photographed.
[…]. […] […].

As to `Nc1nc(N2CCC(N)(CF)CC2)cnc1Sc1cccc(NC(=O)c2c(O)nc3n(c2=O)CCCC3)c1Cl` [compound 51, N-(3-((3-amino-5-(4-amino-4-(fluoromethyl)piperidin-1-yl)pyrazin-2-yl)thio)-2-chlorophenyl)-2-hydroxy-4-oxo-6,7,8,9-tetrahydro-4H-pyrido[1,2-a]pyrimidine-3-carboxamide], the activity at 3 µM in test [1] came out at 94%. Moreover, the pIC50 (in general, −log10 of the IC50, conventionally taken in molar units) on SHP2 is 8.22.
On the same counts, the results for `Nc1nc(N2CCC3(CCC[C@H]3N)CC2)cnc1-c1cccc(Cl)c1Cl` [compound 9, (R)-8-(6-amino-5-(2,3-dichlorophenyl)pyrazin-2-yl)-8-azaspiro[4.5]decan-1-amine] are 118% and 7.14.
On to `Nc1nccc(Sc2cnc(N3CCC4(CC3)COC[C@H]4N)cn2)c1Cl` [compound 24, (S)-8-(5-((2-amino-3-chloropyridin-4-yl)thio)pyrazin-2-yl)-2-oxa-8-azaspiro[4.5]decan-4-amine], for which the activity at 3 µM in test [1] is 43.5%. The molecule also gave a negative logarithm of the IC50 (pIC50) against SHP2 of 8.22.
For the molecule `Cn1c(N2CCC3(CCC[C@H]3N)CC2)nc2n[nH]c(-c3cccc(Cl)c3Cl)c2c1=O` [compound 37, (R)-6-(1-amino-8-azaspiro[4.5]decan-8-yl)-3-(2,3-dichlorophenyl)-5-methyl-2,5-dihydro-4H-pyrazolo[3,4-d]pyrimidin-4-one], the activity at 3 µM in test [1] came out at 45%. This molecule showed a pIC50 against SHP2 of 7.59.
`Nc1nc(N2CCC3(CCCN3)CC2)cnc1-c1cccc(Cl)c1Cl` [compound 8, 3-(2,3-dichlorophenyl)-6-(1,8-diazaspiro[4.5]decan-8-yl)pyrazin-2-amine]: in test [1], the activity at 3 µM was 99.9%. At SHP2, this molecule gave a pIC50 of 6.81.
In the case of `Nc1nccc(Sc2cnc(N3CCC4(CC3)C[C@@H](O)C[C@H]4N)cn2)c1Cl` [compound 18, (2R,4R)-4-amino-8-(5-((2-amino-3-chloropyridin-4-yl)thio)pyrazin-2-yl)-8-azaspiro[4.5]decan-2-ol], in test [1], the activity at 3 µM is 32.3%. The molecule further had a pIC50 at SHP2 of 8.35.
For the molecule `Nc1nc(N2CCC(N)(CF)CC2)cnc1Sc1cccc(NC(=O)c2c(O)nc3ccccn3c2=O)c1Cl` [compound 52, N-(3-((3-amino-5-(4-amino-4-(fluoromethyl)piperidin-1-yl)pyrazin-2-yl)thio)-2-chlorophenyl)-2-hydroxy-4-oxo-4H-pyrido[1,2-a]pyrimidine-3-carboxamide], in test [1], the activity at 3 µM came out at 67.9%. Further, at SHP2, the pIC50 was 8.30.
Turning to `CC1(N)CCN(c2cnc(-c3cccc(Cl)c3Cl)c(N)n2)CC1` [Compound No. 1, 6-(4-amino-4-methylpiperidin-1-yl)-3-(2,3-dichlorophenyl)pyrazin-2-amine], the “effect on cell growth as a single agent” value in test [2] is “no effect on cell growth”; in test [1] (3 μM, ceritinib-resistant cells), “no effect on cell growth”. Moreover, the activity at 3 µM in test [1] stood at 117%.
`CC[C@@H]1OCC2(CCN(c3cnc(Sc4ccnc(N)c4Cl)c(N)n3)CC2)[C@@H]1N` [compound 17, (3S,4S)-8-(6-amino-5-((2-amino-3-chloropyridin-4-yl)thio)pyrazin-2-yl)-3-ethyl-2-oxa-8-azaspiro[4.5]decan-4-amine]: the activity at 3 µM in test [1] was determined as 29.4%. On SHP2, this molecule had a pIC50 of 8.05.

For the origin of these results see patent publication US12053470B2, “Pharmaceutical combination comprising an ALK inhibitor and a SHP2 inhibitor” (Novartis AG, priority 2017, dated 2024).
